How the values were obtained:
[1] = tested on: WSU-DLCL-2 cells (diffuse large B cell lymphoma cells); test: CTG cell proliferation assay, WSU-DLCL-2 cells; assay type: cell-based; details: Homo sapiens, WSUDLCL2, WSU-DLCL-2 cells, 72-120 hours, CellTiter-Glo; read-out: IC50 Value of WSU-DLCL2 Inhibition
Protocol: (§1) CTG Cell Proliferation Assay
(§2) Rec-1 cells (Mantle cell lymphoma cells) (ATCC, catalog number CRL-3004), Namalwa.CSN/70 cells (Burkitt lymphoma cells) (DSMZ, catalog number ACC-70), and WSU-DLCL-2 cells (diffuse large B cell lymphoma cells) (DSMZ, catalog number ACC-575) were seeded at (5-15)×10^3 per well to a 96-well plate with transparent bottom and white wall (Corning, catalog number CLS3903) containing specific medium. The plate was placed in an incubator and incubated for 24 hours at 37° C. under 5% CO2. Compounds were prepared as 150 mM stock solutions with DMSO (Sigma, catalog number 276855), and were diluted with the medium to the desired concentration (the final concentration of DMSO was 0.2%) and then were added to each well, incubated in an incubator for 72-120 hours at 37° C. under 5% CO2. Then, 100 μl CellTiter-Glo® cell activity assay reagent (Promega, catalog number G7570) was added to each well. Mixing proceeded for 10 minutes on a shaker to induce cytolysis. The 96-well plate was placed at room temperature for 10 minutes to make the luminous signal stable. A white base film was pasted at the bottom of the culture plate. EnSpire was used to test the plate.

TNF-α = TNF-α activity inhibiting assay (LPS-stimulated peripheral blood, ELISA); assay type: cell-based, human; details: Homo sapiens, compound 100 nM, diluted peripheral blood of healthy volunteers, LPS 10 ng/mL, 6 hours, read-out: Inhibitory Rate on TNF-α (%)
Method in brief: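 Human whole blood (EDTA), diluted 5-fold in RPMI 1640, pre-incubated 60 min at 37 °C with compound at 100 nM final (0.2% DMSO), then stimulated 6 h with 10 ng/mL LPS. Supernatant TNF-α measured by ELISA (OD450); inhibition relative to 0.2% DMSO control.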

[2] = tested on: Rec-1 cells (Mantle cell lymphoma cells); test: CTG cell proliferation assay, Rec-1 cells; assay type: cell-based; details: Homo sapiens, Rec1, 72-120 hours, CellTiter-Glo, read-out: IC50 Value of Rec-1 Inhibition
Protocol: as §1, §2

[3] = tested on: Namalwa.CSN/70 cells (Burkitt lymphoma cells); test: CTG cell proliferation assay, Namalwa.CSN/70 cells; assay type: cell-based; details: 72-120 hours, CellTiter-Glo, read-out: IC50 Value of Namalwa.CSN/70 Inhibition
Protocol: as §1, §2

[4] = tested on: MM.1S cells (myeloma cells); test: Cell proliferation assay (MTS), MM.1S myeloma cells; assay type: cell-based; details: Homo sapiens, MM1.S, 72 hours, read-out: IC50 values of MMIS Inhibition
Method in brief: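 MM.1S myeloma cells were seeded at 1.8×10^3 per well in RPMI and rested 24 hours before 72 hours of compound exposure at 37° C., 5% CO2, with final DMSO at 0.5%. Viability was read by MTS at OD490 nm, using OD650 nm as reference. IC50 came from variable-slope curves, with the 0.5% DMSO control set as 0% inhibition.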

SMILES | IC50 [1] [nM] | inhibition at 0.1 µM (TNF-α) [%] | IC50 [2] [nM] | IC50 [3] [nM] | IC50 [4] [nM]
[2H][C@@]1(N2Cc3c(N)cc(F)cc3C2=O)CCC(=O)NC1=O [Compound I-32] | > 300000 | > 50 | 100 to 400 | > 300000 | ≥ 300
Nc1cccc2c1CN(C1CCC(=O)NC1=O)C2=O (stereo not shown) [Lenalidomide, 3-(4-amino-1,3-dihydro-1-oxo-2H-isoindole-2-yl)-piperidine-2,6-dione, reference compound] | > 300000 | < 50 | 100 to 400 | > 300000 | ≥ 300

Source: patent publication US10017492B2 (KANGPU BIOPHARMACEUTICALS, LTD., priority 2014, dated 2018)
